Experimental data: patent US20260069584A1, “METHODS OF TREATING CHRONIC MYELOID LEUKEMIA USING THE TYROSINE KINASE INHIBITOR VODOBATINIB” (Sun Pharma Advanced Research Company Ltd., priority 2022, published 2026)

Test: Oral toxicity study in Wistar Rats
Conditions: rat, in vivo

## Cc1ccc(C(=O)NNC(=O)c2c(C)cccc2Cl)cc1C#Cc1cnc2ccccc2c1 [compound of Formula I, N′-(2-chloro-6-methylbenzoyl)-4-methyl-3-[2-(3-quinolyl)ethynyl]-benzohydrazide]
  NOAEL: 100 mg/kg/day
